This assay has as its target T1, human recombinant CRF-1 receptor (Homo sapiens, UniProt P34998).
T1 construct: expressed in transfected cells; host or cells: Chinese hamster ovary (CHO) cells, G418-selected
T1 sequence (P34998 24-415): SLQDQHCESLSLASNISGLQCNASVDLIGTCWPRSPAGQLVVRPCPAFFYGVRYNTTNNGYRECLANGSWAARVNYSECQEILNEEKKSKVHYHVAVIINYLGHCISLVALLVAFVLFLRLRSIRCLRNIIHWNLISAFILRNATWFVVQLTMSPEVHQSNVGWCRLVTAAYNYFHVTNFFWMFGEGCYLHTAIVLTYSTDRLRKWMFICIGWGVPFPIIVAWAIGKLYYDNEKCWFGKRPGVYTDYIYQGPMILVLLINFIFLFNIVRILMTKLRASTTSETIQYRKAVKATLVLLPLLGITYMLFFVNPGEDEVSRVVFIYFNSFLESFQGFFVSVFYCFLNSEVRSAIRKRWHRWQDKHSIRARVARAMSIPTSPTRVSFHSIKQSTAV
Kind of assay: CRF-1 receptor antagonism, HTRF cAMP assay in CHO cells in the presence of 1 nM CRF. Type of assay: cell-based. Particulars: CHO cells expressing human recombinant CRF-1; inhibition of the effect of 1 nM CRF on cAMP; read-out: hCRF1ANTAG/IC50. On the procedure:
The CRF-1 or CRF-2a receptor activity of the agents of the invention has been determined in vitro in the following way:
Chinese hamster ovary (CHO) cells expressing either the human recombinant CRF-1 or CRF-2a receptors (Chen et al., Proc Natl Acad Sci USA 90, 8967-8971, 1993; Liaw et al., Endocrinology 137, 72-77, 1996) are propagated in Dulbecco's modified Eagle medium supplemented with 10% foetal calf serum, non-essential amino acids, 100 U/ml penicillin, 100 mg/l streptomycin and 1 g/l geneticin (G418). For cyclic AMP determinations the Homogeneous Time-Resolved Fluoresce (HTRF) cAMP dynamic 2 kit (Cishbio International, France) was used as per manufacturers' instructions. CHO cells, previously cryopreserved, were thawed, centrifuged for 7 mins at 1200 rpm and resuspended in serum free media, then pipetted out onto clear bottomed black tissue culture treated 384-well microtitre plates (Corning Inc, US) at 2,000 cells per well. […] The plate is read on the Pherastar (BMG, Germany). […] Values represented by a change in arbitrary fluorescence units are converted into cAMP concentrations by use of a standard curve the reagents for which are supplied with the kit. […] IC50 values of antagonists are calculated by fitting the percent inhibition of the effect of CRF by increasing concentrations of the antagonists. […]
A general note: TR-FRET usually uses a lanthanide donor and a delayed reading to cut background.

As for `Cc1nc(C)n(-c2c(C)nn3c(-c4ccc(OC(F)F)cc4C)c(C)oc23)n1` [Example 1, 3-(4-(Difluoromethoxy)-2-methylphenyl)-7-(3,5-dimethyl-1H-1,2,4-triazol-1-yl)-2,6-dimethylpyrazolo[5,1-b]oxazole], the IC50 stood at 71 nM.

(Values after patent US8163785B2, “Pyrazolo[5,1b]oxazole derivatives as CRF-1 receptor antagonists” (Novartis AG, priority 2010, dated 2012).)
